Measurements: patent US8629168B2, “Benzoxazoles and oxazolopyridines being useful as janus kinases inhibitors” (priority 2006, dated 2014)

How the values were obtained:
[1] = biological target: T1, GST-JAK2 (Homo sapiens, UniProt O60674); assay: JAK2 kinase assay of the general description (alternative method, flash plate); assay type: biochemical; details: 1.0 μM ATP, read-out: IC50 with test in general description (named “alternative method to that given in the examples”) (“flash plate”)
T1 construct: the amino acid domain ASP751-VAL1129 of the JAK2 protein
Procedure: Baculovirus including the amino acid domain ASP751-VAL1129 of the JAK2 protein is obtainable by ProQinase, Freiburg, Germany. The virus is scaled up as following: Virus containing media is collected from the transfected cell culture and used for infection to increase its titer. Virus containing media obtained after two rounds of infection is used for large-scale protein expression. For large-scale protein expression 100 cm^2 round tissue culture plates are seeded with 5×10^7 cells/plate and infected with 1 mL of virus-containing media (approx. 5 MOIs). After 3 days the cells are scraped off the plate and centrifuged at 500 rpm for 5 min. Cell pellets from 10-20, 100 cm^2 plates, are re-suspended in 50 mL of ice-cold lysis buffer (25 mMTris-HCl, pH7.5, 2 mMEDTA, 1% NP-40, 1 mM DTT, 1 mMP MSF). The cells are stirred on ice for 15 min and then centrifuged at 5000 rpms for 20 min. The protein is purified by loading the centrifuged cell lysate onto a 2 mL glutathione-sepharose column and washed three times with 10 mL of 25 mM Tris-HCl, pH 7.5, 2 mM EDTA, 1 mM DTT, 200 mM NaCl. The GST-tagged proteins are then eluted by 10 applications (1 mL each) of 25 mM Tris-HCl, pH 7.5, 10 mM reduced-glutathione, 100 mM NaCl, 1 mM DTT, 10% Glycerol and stored at −70° C.
Cancer Cell; 5: 231-239]. The test compound is dissolved in DMSO (10 mM) and stored at −20° C. Serial dilutions are freshly made in DMSO and are […] concentrated than test solutions (“pre-dilution plates”). They are further diluted with pure water to yield “master plates” containing 3 times concentrated test solutions in 3% DMSO. The final volume of the assay is 30 μL containing 10 μL of test solution (1% DMSO), 10 μL assay mix including the assay components described by Garcia-Echeverria (2004) and in the following section as well as 10 μL enzyme. The pipetting steps can be programmed to be performed either on the MultiPROBE Iix, MultiPROBE IILx or HamiltonSTAR robots in the 96 well format.
The protein kinase assays are carried as described in details by Garcia-Echeverria (see above). The assay for JAK2 is carried out in 96-well plates at ambient temperature for 10 min (filter-biding method) or 30 min (flash plates) in a finial volume of 30 μL including the following components: 300 ng of GST-JAK2, 20 mM Tris-HCl, pH 7.5, 1.0 mM MnCl2, 10 mM MgCl2, 1 mM DTT, 3 μg/mL poly(Glu, Tyr) 4:1, 1% DMSO and 1.0 μM ATP (γ-[^33P]-ATP 0.1 μCi); The assays are terminated by the addition of 20 μl of 125 mM EDTA. The capturing of the phosphorylated peptides by the filter-binding method is performed as following: 40 μL of the reaction mixture are transferred onto Immobilon-PVDF membranes previously soaked for 5 min with methanol, rinsed with water, then soaked for 5 min with 0.5% H3PO4 and mounted on vacuum manifold with disconnected vacuum source. After spotting all samples, vacuum is connected and each well rinsed with 200 μl 0.5% H3PO4. Free membranes are removed and washed 4× on a shaker with 1.0% H3PO4, once with ethanol. Membranes are counted after drying at ambient temperature, mounting in Packard TopCount 96-well frame, and addition of 10 μl/well of Microscint. The plates are eventually sealed and counted in a microplate scintillation counter (TopCount NXT, TopCount NXT HTS, PerkinElmer, Brussels, Belgium).
The assays for the flash plate method is carried out in a total volume of 30 μL at RT in conventional 96-well flash plates. The reaction is stopped after 30 min by the addition of 20 μL of 125 mM EDTA The assay plates are then washed three times with PBS and dried at room temperature. The plates are sealed and counted in a microplate scintillation counter (TopCount NXT, TopCount NXT HTS). IC50 values are calculated by linear regression analysis of the percentage inhibition of the compound either in duplicate, at four concentrations (usually 0.01, 0.1, 1 and 10 μM) or as 8 single point IC50 starting at 10 μM following by 1:3 dilutions.

[2] = biological target: T2, GST-JAK2(808-1132) (Homo sapiens, UniProt O60674); assay: EPK JAK/TYK-kinase family profiling assay (Caliper mobility shift), JAK2; assay type: biochemical; details: Caliper mobility shift assay of Example 187, 20 μM ATP, read-out: IC50 with Test in present Example
T2 construct: GST-JAK2(808-1132) is purchased from Invitrogen; purchased Invitrogen (Carlsbad, USA) #4288
Outline: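 Caliper mobility-shift assay with the GST-tagged kinase domain and a fluorescently labeled peptide substrate plus ATP, run 60 min at 30° C and then stopped with EDTA buffer. Turnover was taken as the substrate/product ratio. Compounds were tested at eight final concentrations from 10 to 0.003 μM.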

T2 sequence (O60674 808-1132): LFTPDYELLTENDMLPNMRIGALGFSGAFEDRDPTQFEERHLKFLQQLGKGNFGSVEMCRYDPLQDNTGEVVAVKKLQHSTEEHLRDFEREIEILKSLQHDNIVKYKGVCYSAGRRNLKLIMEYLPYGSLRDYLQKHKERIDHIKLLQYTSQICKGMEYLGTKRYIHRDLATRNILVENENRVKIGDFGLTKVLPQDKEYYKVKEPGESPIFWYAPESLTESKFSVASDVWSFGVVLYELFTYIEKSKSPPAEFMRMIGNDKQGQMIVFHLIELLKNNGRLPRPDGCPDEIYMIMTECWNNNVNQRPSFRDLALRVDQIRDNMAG
T1 sequence (O60674 751-1129): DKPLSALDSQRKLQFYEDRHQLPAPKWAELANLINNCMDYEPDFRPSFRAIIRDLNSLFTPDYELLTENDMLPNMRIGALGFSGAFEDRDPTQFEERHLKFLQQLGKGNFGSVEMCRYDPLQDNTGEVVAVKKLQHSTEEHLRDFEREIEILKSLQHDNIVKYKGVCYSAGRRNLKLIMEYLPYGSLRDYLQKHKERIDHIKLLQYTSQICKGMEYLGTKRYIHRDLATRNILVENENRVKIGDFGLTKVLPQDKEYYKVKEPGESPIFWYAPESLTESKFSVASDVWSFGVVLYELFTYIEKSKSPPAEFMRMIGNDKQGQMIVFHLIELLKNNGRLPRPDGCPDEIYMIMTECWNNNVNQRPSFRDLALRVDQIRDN

Row | SMILES | IC50 [1] [µM] | IC50 [2] [µM]
1 | COc1cc(Nc2nc3cccc(-c4cccc(NS(C)(=O)=O)c4)c3o2)cc(OC)c1OC [Example 55, N-{3-[2-(3,4,5-Trimethoxy-phenylamino)-benzooxazol-7-yl]-phenyl}-methanesulfonamide] | 0.42 | 
2 | COc1cc(Nc2nc3cccc(-c4cccc([N+](=O)[O-])c4)c3o2)cc(OC)c1OC [Example 48, [7-(3-Nitro-phenyl)-benzooxazol-2-yl]-(3,4,5-trimethoxy-phenyl)-amine] | 0.7 | 
3 | COc1cc(Nc2nc3cccc(-c4ccc(CN)cc4)c3o2)cc(OC)c1OC [Example 29, [7-(4-Aminomethyl-phenyl)-benzooxazol-2-yl]-(3,4,5-trimethoxy-phenyl)-amine] | 0.25 | 0.066
4 | CNS(=O)(=O)c1ccc(-c2cccc3nc(Nc4ccc(OC)cc4)oc23)cc1 [Example 139, 4-[2-(4-Methoxy-phenylamino)-benzooxazol-7-yl]-N-methyl-benzenesulfonamide] | 0.4 | 0.12
5 | COc1cc(Nc2nc3cccc(-c4ccc(N(C)C)cc4)c3o2)cc(OC)c1OC [Example 54, [7-(4-Dimethylamino-phenyl)-benzooxazol-2-yl]-(3,4,5-trimethoxy-phenyl)-amine] | 0.35 | 
6 | COc1cc(Nc2nc3cccc(-c4ccccc4C)c3o2)cc(OC)c1OC [Example 44, (7-o-Tolyl-benzooxazol-2-yl)-(3,4,5-trimethoxy-phenyl)-amine] | 0.93 | 
7 | COc1cc(Nc2nc3cccc(-c4ccccc4N)c3o2)cc(OC)c1OC [Example 14, [7-(2-Amino-phenyl)-benzooxazol-2-yl]-(3,4,5-trimethoxy-phenyl)-amine] | 0.61 | 
8 | Nc1cccc(-c2cccc3nc(Nc4ccc(N5CCOCC5)cc4)oc23)c1 [Example 43, [7-(3-Amino-phenyl)-benzooxazol-2-yl]-(4-morpholin-4-yl-phenyl)-amine] | 1.9 | 
9 | COc1cc(Nc2nc3cccc(-c4cccc(C(N)=O)c4)c3o2)cc(OC)c1OC [Example 47, 3-[2-(3,4,5-Trimethoxy-phenylamino)-benzooxazol-7-yl]-benzamide] | 0.593 | 
10 | COc1ccc(-c2cccc3nc(Nc4cc(OC)c(OC)c(OC)c4)oc23)cc1N [Example 53, [7-(3-Amino-4-methoxy-phenyl)-benzooxazol-2-yl]-(3,4,5-trimethoxy-phenyl)-amine] | 0.557 | 
11 | COc1cc(Nc2nc3cccc(-c4cccc(S(C)(=O)=O)c4)c3o2)cc(OC)c1OC [Example 49, [7-(3-Methanesulfonyl-phenyl)-benzooxazol-2-yl]-(3,4,5-trimethoxy-phenyl)-amine] | 0.52 | 
12 | COc1cc(Nc2nc3cccc(-c4ccc(NC(C)=O)cc4)c3o2)cc(OC)c1OC [Example 27, N-{4-[2-(3,4,5-Trimethoxy-phenylamino)-benzooxazol-7-yl]-phenyl}-acetamide] | 0.2 | 
13 | COc1cc(Nc2nc3cccc(-c4ccccn4)c3o2)cc(OC)c1OC [Example 46, (7-Pyridin-2-yl-benzooxazol-2-yl)-(3,4,5-trimethoxy-phenyl)-amine] | 0.35 | 
14 | COc1ccc(-c2cccc3nc(Nc4cc(OC)c(OC)c(OC)c4)oc23)cc1[N+](=O)[O-] [Example 51, [7-(4-Methoxy-3-nitro-phenyl)-benzooxazol-2-yl]-(3,4,5-trimethoxy-phenyl)-amine] | 0.45 | 
15 | COc1cc(Nc2nc3cccc(-c4cccc(C#N)c4)c3o2)cc(OC)c1OC [Example 45, 3-[2-(3,4,5-Trimethoxy-phenylamino)-benzooxazol-7-yl]-benzonitrile] | 0.95 | 
16 | CNS(=O)(=O)c1cccc(-c2cccc3nc(Nc4cc(OC)c(OC)c(OC)c4)oc23)c1 [Example 50, N-Methyl-3-[2-(3,4,5-trimethoxy-phenylamino)-benzooxazol-7-yl]-benzene-sulfonamide] | 0.61 | 
17 | CNC(=O)c1cc(-c2cccc3nc(Nc4cc(OC)c(OC)c(OC)c4)oc23)cs1 [Example 34, 4-[2-(3,4,5-Trimethoxy-phenylamino)-benzooxazol-7-yl]-thiophene-2-carboxylic acid methylamide] | 0.54 | 

Stronger by IC50 [1], values ahead:

Row | IC50 [1] [µM] | IC50 [2] [µM] | SMILES
18 | 0.16 | 0.17 | COc1cc(Nc2nc3cccc(-c4ccc(S(N)(=O)=O)cc4)c3o2)cc(OC)c1 [Example 60, 4-[2-(3,5-Dimethoxy-phenylamino)-benzooxazol-7-yl]-benzenesulfonamide]
19 | 0.15 |  | COc1cc(Nc2nc3cccc(-c4ccc(Cl)c(N)c4)c3o2)cc(OC)c1OC [Example 52, [7-(3-Amino-4-chloro-phenyl)-benzooxazol-2-yl]-(3,4,5-trimethoxy-phenyl)-amine]
20 | 0.0605 | 0.0162 | COc1cc(Nc2nc3cccc(-c4ccc(CNS(C)(=O)=O)cc4)c3o2)cc(OC)c1OC [Example 31, N-{4-[2-(3,4,5-Trimethoxy-phenylamino)-benzooxazol-7-yl]-benzyl}-methanesulfonamide]
21 | 0.14 | 0.0037 | COc1cc(Nc2nc3cccc(-c4ccc(CC(=O)N5CCOCC5)cc4)c3o2)cc(OC)c1OC [Example 140, 1-Morpholin-4-yl-2-{4-[2-(3,4,5-trimethoxy-phenylamino)-benzooxazol-7-yl]-phenyl}-ethanone]
22 | 0.178 |  | COc1cc(Nc2nc3cccc(-c4cccc(O)c4)c3o2)cc(OC)c1OC [Example 6, [7-(3-Hydroxy-phenyl)-benzooxazol-2-yl]-(3,4,5-trimethoxy-phenyl)-amine]
23 | 0.087 |  | CNC(=O)Cc1ccc(-c2cccc3nc(Nc4cc(OC)c(OC)c(OC)c4)oc23)cc1 [Example 61, N-Methyl-2-{4-[2-(3,4,5-trimethoxy-phenylamino)-benzooxazol-7-yl]-phenyl}-acetamide]
24 | 0.041 | 0.021 | COc1cc(Nc2nc3cccc(-c4ccc(CNC(C)=O)cc4)c3o2)cc(OC)c1OC [Example 30, N-{4-[2-(3,4,5-Trimethoxy-phenylamino)-benzooxazol-7-yl]-benzyl}-acetamide]
25 | 0.052 |  | COc1cc(Nc2nc3cccc(-c4ccc(NS(C)(=O)=O)cc4)c3o2)cc(OC)c1OC [Example 26, N-{4-[2-(3,4,5-Trimethoxy-phenylamino)-benzooxazol-7-yl]-phenyl}-methanesulfonamide]
26 | 0.041 |  | CNS(=O)(=O)c1ccc(-c2cccc3nc(Nc4ccc(OC)c(OC)c4)oc23)cc1 [Example 59, 4-[2-(3,4-Dimethoxy-phenylamino)-benzooxazol-7-yl]-N-methyl-benzenesulfonamide]
27 | 0.12 |  | COc1cc(Nc2nc3ccnc(-c4ccc(N)cc4)c3o2)cc(OC)c1OC [Example 36, [4-(4-Amino-phenyl)-oxazolo[5,4-c]pyridin-2-yl]-(3,4,5-trimethoxy-phenyl)-amine]
28 | 0.12 |  | COc1cc(Nc2nc3cccc(-c4ccc5[nH]cnc5c4)c3o2)cc(OC)c1OC [Example 35, [7-(1H-Benzoimidazol-5-yl)-benzooxazol-2-yl]-(3,4,5-trimethoxy-phenyl)-amine]
